What is called IC50 is the point on the concentration scale where inhibition reaches its midpoint.

Assay [1] concerns the target T1, hPAD4 enzyme (Homo sapiens (Human), UniProt Q9UM07). Put plainly: RFMS1 assay (RapidFire mass spectrometry, BAEE substrate). It is filed as biochemical. The conditions noted are these: 5 nM hPAD4, 250 μM BAEE, 30 min preincubation at 37° C., 90 min reaction; read-out: RFMS 1 IC50. A digest of the protocol:
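hPAD4 (5 nM) preincubated 30 min at 37° C. with compound, then 250 μM BAEE for 90 min at 37° C. in pH 7.5 HEPES buffer with 50 μM calcium, 1 mM DTT, 5 μM TPEN. TCA quench, phenyl glyoxal derivatisation; citrulline product measured by RapidFire MS, normalised to internal standard; IC50 values.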

Assay [2] concerns the target T1, hPAD4 enzyme. Put plainly: RFMS2 assay (RapidFire mass spectrometry, TSTGGRQGSHH peptide substrate). It is filed as biochemical. Conditions: 35 nM recombinant human PAD4, 500 μM TSTGGRQGSHH peptide, 30 minutes at room temperature; read-out: RFMS 2 IC50. A digest of the protocol: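 Recombinant human PAD4 (35 nM) with 500 μM TSTGGRQGSHH peptide in HEPES pH 7.4, 200 mM NaCl, 2 mM CaCl2, 5 mM DTT, 1.2% DMSO, 30 min at room temperature; 3-fold compound series, top 20 μM. Quenched with formic acid; substrate and citrullinated product quantified by RapidFire MRM mass spectrometry for IC50.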

T1 sequence (Q9UM07 whole entry): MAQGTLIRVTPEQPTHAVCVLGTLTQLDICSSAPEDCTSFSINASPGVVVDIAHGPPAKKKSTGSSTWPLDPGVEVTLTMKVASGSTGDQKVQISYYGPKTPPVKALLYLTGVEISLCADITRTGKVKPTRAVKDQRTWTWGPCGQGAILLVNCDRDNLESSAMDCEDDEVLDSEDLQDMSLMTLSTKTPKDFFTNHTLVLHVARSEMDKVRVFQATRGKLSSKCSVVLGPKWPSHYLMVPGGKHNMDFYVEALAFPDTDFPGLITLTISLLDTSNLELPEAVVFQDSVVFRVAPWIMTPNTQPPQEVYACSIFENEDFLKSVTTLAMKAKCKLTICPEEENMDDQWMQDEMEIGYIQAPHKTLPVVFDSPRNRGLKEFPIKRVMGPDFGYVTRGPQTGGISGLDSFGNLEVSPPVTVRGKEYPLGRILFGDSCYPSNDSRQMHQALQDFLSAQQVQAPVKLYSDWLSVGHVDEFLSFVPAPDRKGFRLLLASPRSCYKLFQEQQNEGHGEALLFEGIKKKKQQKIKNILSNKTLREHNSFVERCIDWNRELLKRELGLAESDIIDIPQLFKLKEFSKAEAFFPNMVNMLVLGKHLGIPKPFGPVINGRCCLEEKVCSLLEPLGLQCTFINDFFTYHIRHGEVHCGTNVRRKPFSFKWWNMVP

With `COc1cccc2cc(-c3nc4cc5c(cc4n3C)CCN(C[C@H]3COCCN3)C5=O)n(CC3CC3)c12` [Example 231, (S)-2-(1-(cyclopropylmethyl)-7-methoxy-1H-indol-2-yl)-1-methyl-6-(morpholin-3-ylmethyl)-1,6,7,8-tetrahydro-5H-imidazo[4,5-g]isoquinolin-5-one], the figures for the IC50 at hPAD4 enzyme [1] and on hPAD4 enzyme [2] were 0.101 to 0.5 µM and 0.501 to 1 µM, respectively.
In the case of `Cn1c(-c2cc3cccc(OCCn4ccnc4)c3n2CC2CC2)nc2cc3c(cc21)CCN(C[C@H](N)CF)C3=O` [Example 198, (S)-2-(7-(2-(1H-imidazol-1-yl)ethoxy)-1-(cyclopropylmethyl)-1H-indol-2-yl)-6-(2-amino-3-fluoropropyl)-1-methyl-1,6,7,8-tetrahydro-5H-imidazo[4,5-g]isoquinolin-5-one], the figures for the IC50 on hPAD4 enzyme [1] and on hPAD4 enzyme [2] were no more than 0.01 µM and 0.011 to 0.1 µM, respectively.
On the same counts, the results for `COc1cccc2cc(-c3nc4cc5c(cc4n3C)CCN(C[C@H](N)[C@H](C)F)C5=O)n(CC3CC3)c12` [Example 15a, 6-((2S,3S)-2-amino-3-fluorobutyl)-2-(1-(cyclopropylmethyl)-7-methoxy-1H-indol-2-yl)-1-methyl-1,6,7,8-tetrahydro-5H-imidazo[4,5-g]isoquinolin-5-one] are 0.101 to 0.5 µM and 0.101 to 0.5 µM.
The corresponding values for `C[C@H](COc1cccc2cc(-c3nc4cc5c(cc4n3C)CCN(C[C@H](N)CF)C5=O)n(CC3CC3)c12)n1ccnc1` [Example 213, 2-(7-((R)-2-(1H-imidazol-1-yl)propoxy)-1-(cyclopropylmethyl)-1H-indol-2-yl)-6-((S)-2-amino-3-fluoropropyl)-1-methyl-1,6,7,8-tetrahydro-5H-imidazo[4,5-g]isoquinolin-5-one] are no more than 0.01 µM and 0.101 to 0.5 µM.
With `COc1cccc2cc(-c3nc4cc5c(cc4n3C)CCN(C[C@H]3COCCN3)C5=O)n(Cc3ncco3)c12` [Example 232, (S)-2-(7-methoxy-1-(oxazol-2-ylmethyl)-1H-indol-2-yl)-1-methyl-6-(morpholin-3-ylmethyl)-1,6,7,8-tetrahydro-5H-imidazo[4,5-g]isoquinolin-5-one], the IC50 on hPAD4 enzyme [1] and on hPAD4 enzyme [2] was 0.101 to 0.5 µM throughout.
Take `Cn1c(-c2cc3ccccc3n2CC2CC2)nc2cc3c(cc21)CCN(C[C@H](N)C1CC1)C3=O` [Example 10, (R)-6-(2-amino-2-cyclopropylethyl)-2-(1-(cyclopropylmethyl)-1H-indol-2-yl)-1-methyl-1,6,7,8-tetrahydro-5H-imidazo[4,5-g]isoquinolin-5-one]: the IC50 at hPAD4 enzyme [1] and on hPAD4 enzyme [2] was 0.101 to 0.5 µM in each case.

For the origin of these results see patent US20250346592A1 (Celgene Corporation, priority 2022, published 2025).
